Measurements taken from patent US9610367B2, “Particle and contrast agent having the particle” (CANON KABUSHIKI KAISHA, priority 2010, dated 2017).

Experiments:
Format in all cases: physicochemical
[1] = dissolution of ICG in chloroform with lipids without a positively charged region; details: lipid without positively charged region used instead of DOPE
From the text: Instead of DOPE of Example 1, lipids (chemical formula 8, tristearin; chemical formula 9, triolein; chemical formula 10, ethyl stearate; chemical formula 11, β-carotene; and chemical formula 12, cholesterol acetate) without a positively charged region represented by the following chemical formulas 8 to 12 were used to prepare an ICG composition in the same manner as in Example 1. However, ICG was not dissolved in chloroform in any case, and a target polymer nanoparticle containing ICG could not be obtained.

[2] = stability of aqueous dispersion: absorbance at λmax over time at 4° C. in a dark place; details: at 48 hours; ICG dissolved in water
Experimental: To evaluate the stability of polymer nanoparticles, aqueous dispersions of PNP1 and PNP2 were allowed to stand at 4° C. in a dark place, and changes in the absorbance at λmax were measured over time. The results are illustrated in FIGS. 5 and 6. As a comparative example, changes with time in the absorbance at λmax of NPL 1 and in an ICG solution are illustrated in FIG. 5.
Changes in the absorbance of the aqueous dispersions of PNP4 to PNP6 at λmax were measured over time in the same manner as in Example 9. The results are illustrated in FIGS. 7 and 8. As a comparative example, changes with time in the absorbance at λmax of NPL 1 and in an ICG solution are illustrated in FIG. 7.
The PNP10 prepared in Example 13 was diluted with water, and the absorbance was measured over time with an absorption spectrometer (Perkin Elmer). The dispersion was shielded from a light except when measurement was performed and stored at 4° C. The measurement results are illustrated in FIG. 9.

[3] = solubility of ICG in dichloromethane when phospholipid was added; details: phospholipid not added; inferred from absorption curve integral values
Experimental: 2 molar equivalents of a phospholipid was added to 5.5 mg of ICG. As the phospholipid, DSPC or DOPE was used. Each of these ICG-phospholipid mixtures was dissolved in 2 mL of dichloromethane. Controls were prepared by dissolving in ICG in methanol or dichloromethane. All these ICG solutions were filtered with a filter having a pore size of 0.2 μm and then diluted 500-fold with dichloromethane.

| dissolution of ICG in chloroform [1] | Compound | absorbance change rate at λmax [2] [%] | ICG dissolved in dichloromethane [3] |
| --- | --- | --- | --- |
| not dissolved | CCCCCCCCCCCCCCCCCC(=O)OCC [ethyl stearate] |  |  |
| not dissolved | CCCCCCCCCCCCCCCCCC(=O)OCC(COC(=O)CCCCCCCCCCCCCCCCC)OC(=O)CCCCCCCCCCCCCCCCC [tristearin] |  |  |

More lines, now with the values behind:

| Compound | dissolution of ICG in chloroform [1] | absorbance change rate at λmax [2] [%] | ICG dissolved in dichloromethane [3] |
| --- | --- | --- | --- |
| CCCCCCCC/C=C\CCCCCCCC(=O)OCC(COC(=O)CCCCCCC/C=C\CCCCCCCC)OC(=O)CCCCCCC/C=C\CCCCCCCC [triolein] | not dissolved |  |  |
| CC(=O)O[C@H]1CC[C@@]2(C)C(=CC[C@H]3[C@@H]4CC[C@H]([C@H](C)CCCC(C)C)[C@@]4(C)CC[C@@H]32)C1 [cholesterol acetate] | not dissolved |  |  |
| indocyanine green [ICG] |  | 70 | approximately 0.6 mM |
